Data: patent US20220112464A1, “VASCULARIZED ORGANOID MODEL INCORPORATING ISOLATED HUMAN MICROVESSEL FRAGMENTS” (Advanced Solutions Life Sciences, LLC, priority 2020, published 2022)

Assays:
adipose-like organoids [1] = assay: Lipolysis assay (glycerol production), 3D organoids; type: cell-based, human; settings: 1 μM isoproterenol for 4 hours, organoids with and without microvessels
Procedure: A lipolysis assay was performed on 2D (after 24 days of 2D culture) and 3D cultures (after 17 days of 2D and 7 days of 3D culture), using a commercially available kit (Sigma). Samples were treated with 1 μM isoproterenol for 4 hours. For 2D cultures, supernatants were then mixed with the reaction solution and incubated according to manufacturer's instructions. For 3D cultures, organoids were homogenized in the supernatant after isoproterenol incubation using a plastic pestle, to release glycerol trapped inside the organoid. The homogenized sample was briefly centrifuged, and supernatants were used for the remainder of the manufacturer's protocol. Samples were read at 570 nm using a plate reader (BioTek Instruments). For 2D cultures, samples cultured in FBS were used as control samples that will not undergo lipolysis. For 3D samples, negative controls were not treated with isoproterenol.

microvessels = assay: Microvessel growth (vessel length) under different culture media, FIG. 13; type: cell-based, human; settings: medium or supplement used for microvessel culture
From the text: FIG. 13 is a graph depicting vessel length (mm) of organoids cultured under a variety of conditions (serum free+VEGF, 10% FBS, RPMI/B-27/VEGF, ADM, AMM, RPMI/B-27+IM, RMPI/B-27+Dex, RPMI/B-27+IBMX).

adipose-like organoids [2] = assay: TNF-α challenge with RT-PCR of adipocyte markers; type: cell-based, human; settings: TNF-α treatment
Procedure: (§1) Adipose organoids were seeded and cultured as described above. After 7 days of culture, medium was changed from AMM to AMM supplemented with or without 50 ng/ml TNF-α (Peprotech). The following day, organoids were either flash frozen for PCR analysis, fixed for histology, or used for an IL-6 enzyme-linked immunosorbent assay (ELISA).
RNA was extracted from either 2D cultures or 3D organoids using a Qiagen RNeasy Plus Micro kit following manufacturer's protocols. RNA was converted to cDNA with SuperScript™ IV VILO™ Master Mix (Fisher Scientific). cDNA was amplified with human primers (IDT Technologies) listed in Table 1. Primers for insulin receptor were designed using Primer3 software (NIH) and verified using BLAST database (NIH), with gene coding obtained from GenBank (NIH).
Real-time PCR was performed using a SYBER master mix (Fisher Scientific) and CFX96 Real Time System (Bio Rad). Adiponectin and PPAR-γ expression were normalized to GAPDH (IDT Technologies) and compared to either FBS treated controls (2D) or organoids without microvessels (3D). After RT-PCR, amplified cDNA was loaded into a 2% agarose gel and run at 90V. Gels were imaged for SYBER green on a gel scanner (Azure Biosystems).

adipose-like organoids [3] = assay: TNF-α challenge with IL-6 ELISA; type: cell-based, human; settings: 50 ng/ml TNF-α, approximately 24 hours, organoids with and without microvessels
Procedure: as §1
Organoids with and without microvessels and with or without TNF-α treatment were transferred with their supernatants to micro-centrifuge tubes and briefly homogenized with a plastic pestle. Samples were diluted and centrifuged for 2 minutes at 12,000 rcf to pellet remaining matrix and cell debris. An ELISA was performed with the supernatant following manufacturer instructions (R&D systems) to measure secreted interleukin-6 (IL-6) as a marker of adipocyte inflammation and dysfunction.

human microvessels = settings: 50 ng/ml VEGF in serum free medium, 6 days of culture, versus no VEGF

How did the “glycerol production in response to isoproterenol” value (adipose-like organoids [1]) turn out when `CC(C)NCC(O)c1ccc(O)c(O)c1` (stereo not drawn) [isoproterenol] was run?
The value was “produced glycerol”.

For `CC(C)Cn1c(=O)n(C)c(=O)c2[nH]cnc21` [IBMX, 3-isobutyl-1-methylxanthine], which microvessel growth (microvessels) is on record?
Its microvessel growth is “permanently impeded microvessel growth”.

How did the adiponectin expression (adipose-like organoids [2]; organoids with microvessels) turn out when TNF-α was run?
Its adiponectin expression is “small but distinct downregulation”.

What about the adiponectin expression (adipose-like organoids [2]; organoids with no microvessels) of the same compound?
The adiponectin expression was “changed minimally”.

And the IL-6 secretion (adipose-like organoids [3])?
Its IL-6 secretion is “dramatically increased IL-6 secretion”.

For “vascular endothelial growth factor [VEGF]”, which “vascular growth / vessel density of microvessels” value (human microvessels) is on record?
Its value is “significantly increased vascular growth”.
